What all share (conditions): 2.5E−05M
Assay [1] deals with T1, GR (h) (Homo sapiens, UniProt P04150).
T1 sequence (P04150 1-777): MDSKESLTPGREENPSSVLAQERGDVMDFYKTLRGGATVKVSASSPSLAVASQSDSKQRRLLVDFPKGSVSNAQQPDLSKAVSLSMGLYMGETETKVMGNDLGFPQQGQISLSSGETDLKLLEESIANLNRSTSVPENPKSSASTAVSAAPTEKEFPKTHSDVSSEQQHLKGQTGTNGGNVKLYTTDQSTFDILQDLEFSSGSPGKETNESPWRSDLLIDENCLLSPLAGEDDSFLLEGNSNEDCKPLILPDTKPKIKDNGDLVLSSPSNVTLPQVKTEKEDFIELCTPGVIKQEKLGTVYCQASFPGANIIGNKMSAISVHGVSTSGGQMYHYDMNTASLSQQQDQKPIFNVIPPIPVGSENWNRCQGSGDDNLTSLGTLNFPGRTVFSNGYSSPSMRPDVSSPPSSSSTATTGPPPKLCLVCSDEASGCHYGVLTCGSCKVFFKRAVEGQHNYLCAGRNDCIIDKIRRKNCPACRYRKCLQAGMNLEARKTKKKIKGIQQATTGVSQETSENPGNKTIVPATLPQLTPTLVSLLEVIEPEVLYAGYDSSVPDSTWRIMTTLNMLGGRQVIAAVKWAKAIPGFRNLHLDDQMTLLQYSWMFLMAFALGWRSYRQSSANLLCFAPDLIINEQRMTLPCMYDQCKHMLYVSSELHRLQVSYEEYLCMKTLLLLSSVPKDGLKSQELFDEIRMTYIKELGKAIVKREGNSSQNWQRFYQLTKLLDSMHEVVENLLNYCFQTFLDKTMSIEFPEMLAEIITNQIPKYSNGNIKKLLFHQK
Nature of the assay: Abuse liability binding screen, GR (h) (agonist radioligand). The procedure:
(§1) […]. The abuse liability screen included 44 targets (receptors, transporters, on gated-channel systems) related to the dopamine, norepinephrine, serotonin, gamma-aminobutyric acid (GABA), acetylcholine, N-methyl-D-aspartate (NMDA) cannabinoid and opioid neurotransmitter systems as recommended in FDA Draft guidance on Assessment of Abuse Potential of Drugs, January 2010.
(§2) Compound binding was calculated as a % inhibition of the binding of a radioactively labeled ligand specific for each target.
(§3) Results showing an inhibition or stimulation higher than 50% are considered to represent significant effects of the test compounds.

The test system of assay [2] is AMPA. Nature of the assay: Abuse liability binding screen, AMPA (antagonist radioligand). The procedure:
as §2

Assay [3] has as its system ER (non-selective) (h). Nature of the assay: Abuse liability binding screen, ER (non-selective) (h) (agonist radioligand). Also on record: species or system human. The protocol: as §2
For assay [4], the target named is GABAA1 (h) (α1, β2, γ2) (Homo sapiens, UniProt P14867+P18507+P47870). The experiment in a line: Abuse liability binding screen, GABAA1 (h) (α1, β2, γ2) (antagonist radioligand). The procedure:
as §1, §2, §3

The target in assay [5] is T2, M4 (h) (Homo sapiens, UniProt P08173).
T2 sequence (P08173 1-479): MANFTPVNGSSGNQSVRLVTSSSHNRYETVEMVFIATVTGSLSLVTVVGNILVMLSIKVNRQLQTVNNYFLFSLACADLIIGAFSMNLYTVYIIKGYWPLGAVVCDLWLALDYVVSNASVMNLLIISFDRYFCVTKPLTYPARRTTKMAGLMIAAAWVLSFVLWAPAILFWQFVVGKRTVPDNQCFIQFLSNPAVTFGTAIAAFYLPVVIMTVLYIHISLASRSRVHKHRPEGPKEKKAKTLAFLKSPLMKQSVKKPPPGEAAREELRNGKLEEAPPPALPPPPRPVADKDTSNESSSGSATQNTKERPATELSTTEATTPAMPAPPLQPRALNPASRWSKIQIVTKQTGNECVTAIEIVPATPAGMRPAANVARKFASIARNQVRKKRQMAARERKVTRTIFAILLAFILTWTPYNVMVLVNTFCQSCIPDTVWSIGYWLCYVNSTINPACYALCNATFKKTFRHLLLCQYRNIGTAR
The experiment in a line: Abuse liability binding screen, M4 (h) (antagonist radioligand). The protocol: as §1, §2, §3

Assay [6] deals with T3, M5 (h) (Homo sapiens, UniProt P08912).
T3 sequence (P08912 1-532): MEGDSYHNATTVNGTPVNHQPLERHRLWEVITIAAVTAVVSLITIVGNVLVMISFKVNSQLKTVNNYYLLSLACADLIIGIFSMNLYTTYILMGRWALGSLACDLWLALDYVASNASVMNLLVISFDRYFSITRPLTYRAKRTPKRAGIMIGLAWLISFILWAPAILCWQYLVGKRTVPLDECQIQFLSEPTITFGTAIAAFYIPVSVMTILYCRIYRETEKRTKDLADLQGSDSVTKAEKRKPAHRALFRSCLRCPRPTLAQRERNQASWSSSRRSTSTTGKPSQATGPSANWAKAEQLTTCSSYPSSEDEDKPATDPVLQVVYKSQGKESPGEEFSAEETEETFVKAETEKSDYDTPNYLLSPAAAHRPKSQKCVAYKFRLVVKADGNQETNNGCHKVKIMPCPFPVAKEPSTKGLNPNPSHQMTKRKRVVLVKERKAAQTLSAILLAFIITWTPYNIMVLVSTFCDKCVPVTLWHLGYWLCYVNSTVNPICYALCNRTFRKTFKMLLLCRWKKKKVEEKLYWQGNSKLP
Nature of the assay: Abuse liability binding screen, M5 (h) receptor (antagonist radioligand). The procedure: as §1, §2, §3

For assay [7], the system named is Na^+ channel (site 2). Nature of the assay: Abuse liability binding screen, Na+ channel (site 2) (antagonist radioligand). The protocol: as §2
Assay [8] has as its target Norepinephrine transporter (h) (Homo sapiens, UniProt P23975). The experiment in a line: Abuse liability binding screen, Norepinephrine transporter (h) (antagonist radioligand). The protocol:
as §1, §2, §3

Sequence of Norepinephrine transporter (h) (P23975 whole entry): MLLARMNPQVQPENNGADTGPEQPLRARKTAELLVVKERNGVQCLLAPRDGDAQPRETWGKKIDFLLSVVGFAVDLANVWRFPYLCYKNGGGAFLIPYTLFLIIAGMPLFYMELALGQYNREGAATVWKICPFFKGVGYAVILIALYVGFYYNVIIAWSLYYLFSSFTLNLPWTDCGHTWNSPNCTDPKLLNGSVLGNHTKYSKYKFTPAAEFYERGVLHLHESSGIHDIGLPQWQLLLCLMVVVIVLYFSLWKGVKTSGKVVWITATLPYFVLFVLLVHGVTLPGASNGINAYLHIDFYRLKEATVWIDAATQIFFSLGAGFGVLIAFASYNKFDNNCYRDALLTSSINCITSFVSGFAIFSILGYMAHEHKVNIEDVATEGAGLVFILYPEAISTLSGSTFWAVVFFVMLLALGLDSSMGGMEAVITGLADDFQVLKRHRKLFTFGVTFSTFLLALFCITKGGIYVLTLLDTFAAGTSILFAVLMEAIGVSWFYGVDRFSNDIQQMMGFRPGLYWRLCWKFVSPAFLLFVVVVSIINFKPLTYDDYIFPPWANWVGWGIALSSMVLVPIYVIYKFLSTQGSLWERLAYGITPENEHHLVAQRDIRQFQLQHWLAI
Sequence of GABAA1 (h) (α1, β2, γ2) (P14867 28-456): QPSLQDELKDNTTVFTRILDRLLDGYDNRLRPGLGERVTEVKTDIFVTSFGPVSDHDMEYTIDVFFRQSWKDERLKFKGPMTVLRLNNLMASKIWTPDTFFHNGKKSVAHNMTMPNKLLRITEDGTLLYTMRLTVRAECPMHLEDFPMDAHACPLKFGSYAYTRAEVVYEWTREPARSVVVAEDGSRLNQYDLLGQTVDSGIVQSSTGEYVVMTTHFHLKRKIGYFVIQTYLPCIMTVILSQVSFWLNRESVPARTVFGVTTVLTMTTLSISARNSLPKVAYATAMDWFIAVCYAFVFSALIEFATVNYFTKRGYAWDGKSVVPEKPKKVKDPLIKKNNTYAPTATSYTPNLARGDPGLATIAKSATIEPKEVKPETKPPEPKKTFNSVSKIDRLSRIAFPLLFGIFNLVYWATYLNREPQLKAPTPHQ
Sequence of GABAA1 (h) (α1, β2, γ2) (P47870 25-512 limits assumed): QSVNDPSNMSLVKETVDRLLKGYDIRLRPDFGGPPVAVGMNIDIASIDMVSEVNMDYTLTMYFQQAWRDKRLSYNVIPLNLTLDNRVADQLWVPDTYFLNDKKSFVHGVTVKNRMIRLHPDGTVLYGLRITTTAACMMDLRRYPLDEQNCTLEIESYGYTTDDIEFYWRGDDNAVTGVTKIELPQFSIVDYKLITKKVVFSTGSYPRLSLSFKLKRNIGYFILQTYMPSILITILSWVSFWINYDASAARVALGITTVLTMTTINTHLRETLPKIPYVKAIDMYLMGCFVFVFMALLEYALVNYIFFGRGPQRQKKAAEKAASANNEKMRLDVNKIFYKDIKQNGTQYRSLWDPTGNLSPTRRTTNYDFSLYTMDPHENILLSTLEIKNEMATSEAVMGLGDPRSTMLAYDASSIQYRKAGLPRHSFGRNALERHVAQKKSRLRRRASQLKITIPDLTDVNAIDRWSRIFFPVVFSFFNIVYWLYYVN
Sequence of GABAA1 (h) (α1, β2, γ2) (P18507 40-475): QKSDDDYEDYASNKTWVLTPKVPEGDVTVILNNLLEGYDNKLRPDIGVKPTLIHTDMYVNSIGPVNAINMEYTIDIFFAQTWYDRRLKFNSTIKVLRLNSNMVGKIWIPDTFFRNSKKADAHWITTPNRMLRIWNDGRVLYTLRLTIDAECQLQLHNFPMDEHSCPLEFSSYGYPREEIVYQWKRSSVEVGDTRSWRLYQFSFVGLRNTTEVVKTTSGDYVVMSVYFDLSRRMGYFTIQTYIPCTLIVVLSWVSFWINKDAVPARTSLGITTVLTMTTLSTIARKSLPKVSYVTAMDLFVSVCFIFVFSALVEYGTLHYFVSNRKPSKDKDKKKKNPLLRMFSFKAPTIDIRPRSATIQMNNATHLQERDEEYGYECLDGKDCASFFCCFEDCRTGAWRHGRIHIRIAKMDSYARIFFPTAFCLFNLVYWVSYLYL

On to `O=C(O)[C@H]1O[C@@H](Oc2ccc3c4c2O[C@H]2[C@@H](O)CC[C@@]5(O)[C@@H](C3)N(CC3CCC3)CC[C@]425)[C@H](O)[C@@H](O)[C@@H]1O` [Compound M5, nalbuphine-3-beta-D-glucuronid], for which the “% Inhibition of Control Specific Binding 1st” value in assay [1] is given as 0.8%; in assay [2] it was −8.0%; in assay [3], 9.0%; in assay [4] it was −1.4%; in assay [5], −7.9%; in assay [6], 9.9%. Also, the entries for the “% Inhibition of Control Specific Binding 1st” value in assay [7] and in assay [8] were −2.1% and −11.4%, respectively. In addition, the “% Inhibition of Control Specific Binding 2nd” value in assay [1] is on record as −5.4%; in assay [2] it was −11.1%; in assay [3], 10.6%; in assay [4] it was −0.8%; in assay [5], 16.6%; in assay [6], 0.7%. Moreover, the “% Inhibition of Control Specific Binding 2nd” value in assay [7] came to 24.8%; in assay [8], 3.2%. For the same molecule, the “% Inhibition of Control Specific Binding Mean” value in assay [1] is on record as −2.3%; in assay [2], −9.6%; in assay [3], 9.8%; in assay [4], −1.1%; in assay [5], 4.4%; in assay [6] it was 5.3%. For the same molecule, the “% Inhibition of Control Specific Binding Mean” value is recorded as 11.4% in assay [7] and −4.1% in assay [8].
